Consider 6 molecules from patent US3966718A, “7-β-Acylamino-ceph-3-ems and salts and esters therefor” (Beecham Group Limited, priority 1973, dated 1976).

In brackets after ≈: the same amount, converted by molar mass. Structures can show the parent of a compound that is named as a salt. Where two headings read alike, the source gives them in different places.

Assay type in all cases: cell-based
Assay [1] concerns E. coli JT 1. Kind of assay: MIC on nutrient agar. As to conditions: Escherichia coli.
For assay [2], the system named is Klebsiella aerogenes A. Kind of assay: MIC on nutrient agar. As to conditions: read-out: minimum inhibitory concentration (MIC).
Assay [3] relates to Staph. aureus Russell. The assay can be described thus: MIC on (nutrient) agar. The settings on record: Staphylococcus aureus; Staph. aureus Russell, agar; read-out: minimum inhibitory concentration (MIC).
Assay [4] relates to B. subtilis. Kind of assay: MIC on (nutrient) agar. The settings on record: Bacillus subtilis; B. subtilis, agar; read-out: minimum inhibitory concentration (MIC).
Assay [5] concerns Proteus mirabilis C977. The assay can be described thus: MIC on nutrient agar.
For assay [6], the system named is β-Haemolytic Strep. CN10. Kind of assay: MIC on (nutrient) agar. The settings on record: β-Haemolytic Strep. CN10, agar; read-out: minimum inhibitory concentration (MIC).
Assay [7] deals with Shigella sonnei. The assay can be described thus: MIC on nutrient agar. As to conditions: read-out: minimum inhibitory concentration (MIC).
The subject of assay [8] is Staph. aureus Oxford. The assay can be described thus: MIC on (nutrient) agar. As to conditions: Staphylococcus aureus, read-out: minimum inhibitory concentration (MIC).
Assay [9] relates to Salmonella typhi. The assay can be described thus: MIC on nutrient agar. The settings on record: Salmonella enterica, read-out: minimum inhibitory concentration (MIC).
Assay [10] has as its system Gram-positive and Gram-negative organisms. Kind of assay: antibacterial activity (general statement). The settings on record: in words.
The mark [11] stands for this setting: JT1, read-out: minimum inhibitory concentration (MIC).
[12] abbreviates: Proteus mirabilis C977, nutrient agar, read-out: minimum inhibitory concentration (MIC).
The mark [13] stands for this setting: JT1, E. coli JT 1, nutrient agar, read-out: minimum inhibitory concentration (MIC).
[14] abbreviates: Klebsiella aerogenes A, nutrient agar.

Regarding `NC(CC(=O)N[C@@H]1C(=O)N2C(C(=O)O)=C(Cc3cccnc3)CS[C@H]12)C1CC=CCC1` (mixture of isomers) [Example 18, 7β-(DL-3-[cyclohex-3-ene]-3-aminopropionamido)-3(3-pyridylmethyl)-3-cephem-4-carboxylic acid di-trifluoroacetic acid salt], the MIC came to 125 µg/mL in assay [1] (setting [11]); 125 µg/mL in [2] (Klebsiella aerogenes); 1.25 µg/mL in assay [3]; 1.25 µg/mL in [4]; 250 µg/mL in assay [5] (setting [12]); 0.5 µg/mL in assay [6]. Also, the MIC in assay [7] was 125 µg/mL; in [8], 0.5 µg/mL; in assay [9], 125 µg/mL.

In the case of `NC(C(=O)N[C@@H]1C(=O)N2C(C(=O)O)=C(Cc3cccnc3)CS[C@H]12)C1CC1` (mixture of isomers) [Example 19, 7β-(DL-α-aminocyclopropylacetamido)-3(3-pyridylmethyl)-3-cephem-4-carboxylic acid di-trifluoroacetic acid salt], the MIC turned out to be 500 µg/mL in [1] (setting [13]); 250 µg/mL in assay [2] (setting [14]); 12.5 µg/mL in assay [3]; 12.5 µg/mL in assay [4]; 500 µg/mL in assay [5] (setting [12]); 2.5 µg/mL in assay [6]. Besides, the MIC came out at 250 µg/mL in assay [7], 5 µg/mL in assay [8] and 250 µg/mL in [9].

Consider `O=C(Cc1cccs1)N[C@@H]1C(=O)N2C(C(=O)O)=C(Cc3cccnc3)CS[C@H]12` [Example 2, 3(3-pyridylmethyl)-7β-(2-thienylacetamido)-3-cephem-4-carboxylic acid], for which the antibacterial activity entry in [10] is “essentially similar to the trifluoroacetate salt described in Example 1”.

Regarding `NC(C(=O)N[C@@H]1C(=O)N2C(C(=O)O)=C(Cc3cccnc3)CS[C@H]12)c1cccs1` (stereo partly drawn) [Example 15, 7-β-[(dl)-α-Amino-2-thienylacetamido]-3-(3-pyridylmethyl)-3-cephem-4-carboxylic acid Di-trifluoroacetic acid salt], the MIC in assay [1] (setting [13]) was 12.5 µg/mL; in assay [2] (setting [14]), 5 µg/mL; in assay [3], 5 µg/mL; in [4], 1.25 µg/mL; in assay [5] (setting [12]) it was 12.5 µg/mL; in [6], 0.5 µg/mL. In addition, the MIC amounted to 5 µg/mL in assay [7], 0.5 µg/mL in assay [8] and 2.5 µg/mL in assay [9].

For the molecule `O=C(Cc1ccncc1)N[C@@H]1C(=O)N2C(C(=O)O)=C(Cc3cccnc3)CS[C@H]12` [Example 17, 7β(4-pyridylacetamido)-3(3-pyridylmethyl)-3-cephem-4-carboxylic acid di-trifluoroacetic acid salt], the MIC in assay [1] (setting [13]) worked out at 25 µg/mL; in assay [2] (setting [14]), 10 µg/mL; in [3] it was 25 µg/mL; in [4], 0.25 µg/mL; in assay [5] (setting [12]) it was 10 µg/mL; in assay [6], 0.12 µg/mL. For the same molecule, the MIC in [7] turned out to be 25 µg/mL; in [8], 0.12 µg/mL; in [9], 10 µg/mL.

As to `CN(C(=O)C=Cc1ccccc1)C(=O)N[C@@H](C(=O)N[C@@H]1C(=O)N2C(C(=O)O)=C(Cc3cccnc3)CS[C@H]12)c1ccccc1` [Example 20], the MIC in [1] (setting [11]) is 125 µg/mL (≈ 204 µM); in [2] (setting [14]), 63 µg/mL (≈ 103 µM); in assay [3], 63 µg/mL (≈ 103 µM); in assay [4] it was 32 µg/mL (≈ 52.3 µM); in assay [5] (Proteus mirabilis, C977, read-out: minimum inhibitory concentration (MIC)), above 125 µg/mL; in [6], 0.25 µg/mL (≈ 0.409 µM). For the same molecule, the figures for the MIC in assay [7], in [8] and in assay [9] were 63 µg/mL (≈ 103 µM), 4 µg/mL (≈ 6.54 µM) and above 125 µg/mL, respectively.
